# Results taken from PubChem BioAssay (NCI).
#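 All cell lines were grown in 96-well plates and treated with compound for 48 hours. At the GI50, growth is halved. TGI marks complete inhibition of growth.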
# Columns and labels:
# Assay in all cases: NCI tumour cell line growth inhibition, 48 h
# [1] = test system: KM12 colon
# [2] = test system: UACC-257 melanoma
# [3] = test system: SK-MEL-2 melanoma
# [4] = test system: U251 CNS
# [5] = test system: M14 melanoma
# [6] = test system: OVCAR-5 ovarian
# [7] = test system: MALME-3M melanoma
# [8] = test system: RPMI-8226 leukemia
# [9] = test system: MDA-MB-231 breast
# [10] = test system: SF-539 CNS
# [11] = test system: SK-MEL-28 melanoma
# [12] = test system: NCI-H460 lung
# [13] = test system: IGROV1 ovarian
# [14] = test system: SK-OV-3 ovarian
# [15] = test system: HOP-62 NSCLC
# [16] = test system: NCI-H23 lung
# [17] = test system: SF-268 CNS
# [18] = test system: SN12C renal
# [19] = test system: OVCAR-8 ovarian
# [20] = test system: BT-549 breast
# [21] = test system: NCI-H522 lung
# [22] = test system: SNB-19 CNS
# [23] = test system: MDA-MB-435
# [24] = test system: OVCAR-4 ovarian
# [25] = test system: DU-145 prostate
# [26] = test system: MOLT-4 leukemia
# [27] = test system: CAKI-1 renal
# [28] = test system: MCF7 breast
compound,measurement,setting,value
O=C(CCCCN1CCOCC1)Nc1ccc(Cn2nnc3c2C(=O)c2nnn(Cc4ccc(NC(=O)CCCCN5CCOCC5)cc4)c2C3=O)cc1,GI50,[1],574 nM
same,TGI,[1],1720 nM
same,GI50,[2],141 nM
same,TGI,[2],399 nM
same,GI50,[3],351 nM
same,TGI,[3],1220 nM
same,GI50,[4],329 nM
same,TGI,[4],879 nM
same,GI50,[5],264 nM
same,TGI,[5],903 nM
same,GI50,[6],107 nM
same,TGI,[6],244 nM
same,GI50,[7],72 nM
same,TGI,[7],163 nM
same,GI50,[8],596 nM
same,TGI,[8],2030 nM
same,GI50,[9],199 nM
same,TGI,[9],50000 nM
same,GI50,[10],132 nM
same,TGI,[10],355 nM
same,GI50,[11],260 nM
same,TGI,[11],642 nM
same,GI50,[12],112 nM
same,TGI,[12],530 nM
same,GI50,[13],669 nM
same,TGI,[13],1460 nM
same,GI50,[14],930 nM
same,TGI,[14],1830 nM
same,GI50,[15],745 nM
same,TGI,[15],1490 nM
same,GI50,[16],154 nM
same,TGI,[16],522 nM
same,GI50,[17],400 nM
same,TGI,[17],1600 nM
same,GI50,[18],94.6 nM
same,TGI,[18],203 nM
same,GI50,[19],257 nM
same,TGI,[19],1140 nM
same,GI50,[20],722 nM
same,TGI,[20],1410 nM
same,GI50,[21],113 nM
same,TGI,[21],362 nM
same,GI50,[22],187 nM
same,TGI,[22],566 nM
same,GI50,[23],94.8 nM
same,TGI,[23],170 nM
same,GI50,[24],177 nM
same,TGI,[24],769 nM
same,GI50,[25],459 nM
same,TGI,[25],1050 nM
same,GI50,[26],183 nM
same,TGI,[26],788 nM
same,GI50,[27],1430 nM
same,TGI,[27],28200 nM
same,GI50,[28],84.9 nM
